We go through five compounds from patent US20260294864A1, “PHARMACEUTICAL COMPOSITION FOR THE TREATMENT AND PREVENTION OF HPV” (NP1 SRL, priority 2022, published 2026).

The subject of experiment [1] is PC3 prostate cancer cells. As to conditions: PC3 cells (Lansky E P et al 2005); cited from earlier work.
Experiment [2] has as its system HPV transformed cells. Briefly: Anti-clonal effect on HPV transformed cells (cell line not stated). It counts as cell-based, human. As to conditions: for anticlonogenic / anti-clonal effect / IC50 / IRR (inhibitory relative rate): isolated compound; for IC50: Homo sapiens, minimal concentration reducing 50% of CFU of treated versus control, read-out: CID50 (50% clonal inhibitory dose), isolated polyphenols; for IRR (inhibitory relative rate): reverse ratio of CID50 to the reference CID50 of Quercetin (=1). The method, then:
The inhibitory relative rate (IRR) (fourth column) provides an efficacy ranking of molecules.
The anti-clonogenic activity was evaluated both by the current standard qualitative plating efficiency assay and by quantitative live cell imaging analysis (INCUCYTE S3 Live Cell Analysis Imaging System—Sartorius Welwyn Garden City, Hertfordshire, UK). For qualitative plating efficiency assay cells were seeded at ‘clonal’ density (i.e., 0.5 cell/mm^2) either in medium containing the testing molecules or with plain medium and incubated without any further manipulation. After 9-14 days, according to the cell line specific proliferative index, the cultures were decanted and stained with 0.2% CV/methanol for 5 min at room temperature. All conditions were tested in triplicates in a 6-well culture plate. The anti-clonogenic activity of the treatments was evaluated using the colony forming units (CFU) of treated versus control cultures. The minimal concentration which could reduce 50% of the CFU of treated versus control culture was defined as colony-forming Inhibitory concentration (CID50). For quantitative evaluation cells were seeded in 96-well microplates at the above density and condition and allowed to grow the subsequent 8-day incubation in the INCUCYTE S3 Imaging System. Images were acquired at 12-hours intervals and colony formation and percentage of growth area covered (confluency) were then monitored through automated image analysis. The analysis parameters were as follows: segmentation adjustment=0.4; hole fill <5,000 μm^2; adjusted pixel=−2.

A further experiment has as its system HeLa cells. Briefly: Anti-clonogenic activity on HeLa cells (plating efficiency assay / live cell imaging). As to conditions: for Anti-clonal effect: isolated, FIG. 1; for anti-clonal effect at concentrations above CID50: higher concentrations than CID50, HeLa. It counts as cell-based, human. As to the method: Panel C and D: diagrammatic topographical maps of treatments and growth conditions on plates A and B respectively.
Panel A. Hela cells were challenged with serial twofold dilutions of 50 μM Luteolin (in columns 1-6) and 100 μM Galangin (columns 7-10). Hela control untreated cells in columns 11-12.
(§1) A total of 6 cell lines, outlined in Table 3, were used for this study. The cell lines were obtained from Research Centres of cell biology in Italy, United Kingdom and Germany. This research raised no ethical concern being based on entirely in vitro experiments using no patients' derived information or material. In compliance with National and International ethical rules, no informed consent is needed.
(§2) HeLa cells are the oldest continuous cell lines and were originally derived from a HPV18 positive metastatic cervical carcinoma (Scherer W F et al 1953). Siha cells are an epithelioid like cell line derived from a HPV16-positive invasive cervical squamous carcinoma (Friedel F et al 1970). Ca-Ski cells are a line harboring multiple copy of transcriptionally active HPV16 genomes (Baker C C et al 1984). Both Hela and Siha were a kind gift of prof MS Campo, The Beatson Institute for Cancer Research, Glasgow, Scotland. These two cell lines because of their versatility and ease of use were used for most of experiments reported. Ca-Ski cells were obtained through the courtesy of prof. Matthias Durst, at the Deutsch Krebsforschungzentrum—Heidelberg, FRG. These cells used together with Siha provide a model for the genetic instability and variability of cervical cancers. HK-168 is an immortalized, non-tumorigenic, continuous cell line derived from human skin keratinocytes in vitro transformed with whole HPV16 genome (De Marco F et al 2007). This cell line is reputed to recapitulate le biological features of transformed dysplastic cells and was used in preliminary experiments to set the experimental dosages and conditions. The ME-180 cells are a cell line harboring a few, transcriptionally active, copies of HPV68 and provide an in vitro model for dysplastic/neoplastic lesions induced by HPV with Intermediate oncogenic Risk (Yee C C et al 1985). The HaCaT cells, derived from a solar skin lesion by Petra Boukamp et al (1988) are here used as an in vitro equivalent of Ultra-Violet induced pre-neoplastic epithelial cells to rule out possible direct toxic effects of polyphenols. Both HaCaT and ME-180, were kindly donated by Prof. Matthias Durst. Hela, Siha, Ca-Ski, ME-180 and HaCaT were all grown in high glucose DMEM supplemented with 10% fetal calf serum (FCS). The HK-168 cells, which retained the ability to terminally differentiate under high Ca^2+ and FCS concentrations, were grown in K-SFM, a chemically defined medium supplemented with human EGF and bovine pituitary extract (ThermoFisher Scientific, Life Technologies, Monza—MI). Each cell line was sub-cultured twice a week at the appropriate split ratio according to the specific proliferative index. In no case antibiotics or antimycotics were added to the culture media. For the present study, all cell lines were retrieved from an in-house cell archive facility.
The anti-clonogenic activity was evaluated both by the current standard qualitative plating efficiency assay and by quantitative live cell imaging analysis ([…] S3 Live Cell Analysis Imaging System—Sartorius Welwyn Garden City, Hertfordshire, UK).

Experiment [3] has as its system HPV transformed cells. The experiment in a line: Antiproliferative effect on HPV transformed cells (cell line not stated). It counts as cell-based, human. To be noted: summary statement, isolated compound. The method, then:
(§3) For antiproliferative effect cells were seeded in 96-well microplates at 1000 cells/per well (i.e.: 30 cell/mm^2), a density allowing exponential growth rate for the subsequent 8-day incubation. After overnight adhesion cell monolayers were washed and replenished with fresh media with different testing molecules, plain medium served as cell growth control.
(§4) Cell growth was then monitored by automated INCUCTE S3 imaging Systems. Images were acquired at 12-hours intervals. The analysis parameters were as follows: segmentation adjustment=0.9; hole fill <7,000 μm^2; adjusted pixel=0.

Experiment [4] relates to Siha cells. The experiment in a line: Anti-clonogenic activity on SiHa cells (plating efficiency assay / live cell imaging). It counts as cell-based, human. To be noted: for end-point anti-clonal effect versus control untreated cells / inhibition at 25 µM: SiHa; for end-point anti-clonal effect versus control untreated cells: FIG. 6-8; for inhibition at 25 µM: Homo sapiens, single compound, 24 hours treatment then wash-out, FIG. 12, read-out: clonal inhibition. The method, then: In this experiment Kaempferol and Apigenin were administered to Siha cells at decremental concentrations, either in combination or alone, as shown in the topographical map (in panel C). […] Histograms in Panel B depict the number of colonies per well as evaluated by visual inspection and count.
The Histograms in Panel B depict the number of colonies per well as evaluated by visual inspection and count. • In Panel C a topographical map of plate treatments. Each condition was assayed in duplicate.
Kaempferol, Galangin, Luteolin and their combination were administered to SiHa cells at the concentrations of 25 μM each and of 12,5/12,5/6,25 μM for their combination. Treatments were allowed to stay on cells either for 2 or 4/8/16/24 hours. After that, treatments were washed out, cells washed two times with PBS, replenished with fresh medium and the anti-clonal effect was then monitored by live cell image analysis.
as §1, §2

A further experiment concerns gastric cancer cells. To be noted: wound-healing and Boyden Chamber assays (Ho H H et al 2010); cited from earlier work.
In the next experiment the test system is glioma cells. As to conditions: wound-healing and Boyden Chamber assays (Lu J et al 2010); cited from earlier work.
Experiment [5] concerns Siha cells. Briefly: Antiproliferative effect on Siha cells, live cell analysis. It counts as cell-based, human. As to conditions: Siha 1000 cells/well; for antiproliferative effect: 50 μM, FIG. 2. The method, then: FIG. 2: live cell analysis of RNPs antiproliferative effect. Siha cells were seeded at 1000 cells/well in a 96 well plate and allowed to adhere overnight. The plate was then washed twice with PBS and replenished with 100 microliter/well fresh medium plus 50 μM of each compound. Images were taken every 12 hours; Growth curves were drawn plotting the percentage of confluence versus time. […] In fact, their growth curves outline a single spindle completely overlapping and masking the one of control untreated cells. Conversely, a distinct anti-proliferative effect is evident in panel B- where the growth curves of RNP 9 Kaempferol (solid squares), RNP 12 Luteolin (solid diamonds), RNP 16 Apigenin (solid circles) and control untreated cells (solid stars) are depicted. […] Each point represents the mean of six independent replicas. Bar width represents the Standard Deviation (SD). Consistent results were also obtained by HeLa and ME-180 cells
as §3, §4
Data for growth curves, anti-clonal and Antiproliferative assays were obtained from at least three independent experiments. Each data point of quantitative anti-proliferative or anti-clonal experiments represents the mean (±SD) of eight independent replicates. Data were analyzed and plotted using Prism 6.0 software (GraphPad Software, San Diego, CA).

Structures are written as SMILES.

Regarding `O=C(O)/C=C/c1ccc(O)c(O)c1` [Caffeic acid], the reduction of invasiveness in experiment [1] is on record as 50%. Further, the “clonal inhibition in combination” value with HPV transformed cells [2] (combined with Galangin or Quercetin, summary statement) was “a certain grade of clonal inhibition”. For the same compound, the “anticlonogenic / anti-clonal effect” value with HPV transformed cells [2] (summary statement) is given as “devoid of any direct activity”; with HPV transformed cells [2] (summary statement, listed as Caffeic) it was “devoid of. any direct anticlonogenic activity”. Besides, the “clonal inhibition in combination with Apigenin” value with HeLa cells (50 μM combined with Apigenin 25 μM, HeLa, FIG. 9-11) is on record as “almost complete clonal inhibition”. The “clonal inhibition in combination with Galangin” value with HeLa cells (50 μM combined with Galangin 12.5 μM, HeLa, FIG. 9-10) was “almost complete clonal inhibition”. Further, in the experiment on HeLa cells (50 μM, administered alone, HeLa, FIG. 9-11), the “end point clonal assay, clonal inhibition alone” value was “neither of them induced any effect”. Further, in the experiment on HeLa cells (50 μM, HeLa), the Anti-clonal effect entry is “devoid of any significant anticlonogenic effect”. The “synergistic effect with Galangine and Apigenin” value in the experiment with HeLa cells (in association, HeLa, FIG. 9) is reported as “synergistic effect”.
With `O=c1c(O)c(-c2ccccc2)oc2cc(O)cc(O)c12` [Galangin], the antiproliferative effect result with HPV transformed cells [3] was “sharp anticlonogenic and antiproliferative effect”. In the experiment with HPV transformed cells [2], the IC50 worked out at 25 µM and the “IRR (inhibitory relative rate)” value came to 2. In the experiment on HPV transformed cells [2] (summary statement), the “anticlonogenic / anti-clonal effect” value was “sharp anticlonogenic and antiproliferative effect”. Also, the “end-point anti-clonal effect versus control untreated cells” value in the experiment with Siha cells [4] (25.0 μM, alone) is on record as “no difference to control untreated cells”. Besides, in the experiment with Siha cells [4], the inhibition at 25 µM was about 50%. Further, in the experiment with HeLa cells (50 μM, HeLa), the Anti-clonal effect result is “almost complete suppression of clonal activity”. Also, in the experiment on HeLa cells (FIG. 3), the “anti-clonal effect at concentrations above CID50” value was “completely suppressive”.
For the compound `O=C(O)c1cc(O)c(O)c(O)c1` [Gallic acid], the “migration of gastric cancer cells” value in the experiment with gastric cancer cells is on record as “reduce the migration”. Further, in the experiment on glioma cells, the “migration of glioma cells” value is on record as “reduce the migration”.
For the compound `O=c1c(O)c(-c2ccc(O)cc2)oc2cc(O)cc(O)c12` [Kaempferol], the antiproliferative effect result in the experiment with HPV transformed cells [3] is “sharp anticlonogenic and antiproliferative effect”; in the experiment with Siha cells [5] it was “distinct, although milder effect”. Also, the IC50 with HPV transformed cells [2] was found to be 25 µM. In the experiment with HPV transformed cells [2], the “IRR (inhibitory relative rate)” value is given as 2. Also, the “anticlonogenic / anti-clonal effect” value in the experiment on HPV transformed cells [2] (summary statement) was “sharp anticlonogenic and antiproliferative effect”. Moreover, in the experiment on Siha cells [4] (12.5 μM, alone, Siha, FIG. 4), the “clonal efficiency versus control untreated cells” value is given as “no difference to control untreated cells”. The inhibition at 25 µM in the experiment with Siha cells [4] was about 50%. Besides, the inhibition at 50 µM in the experiment with Siha cells [5] (Homo sapiens, FIG. 2, read-out: suppression of proliferation) is about 40%. In addition, the Anti-clonal effect entry in the experiment on HeLa cells (50 μM, HeLa) is given as “almost complete suppression of clonal activity”.
As for `O=c1cc(-c2ccc(O)c(O)c2)oc2cc(O)cc(O)c12` [Luteolin], the antiproliferative effect entry with HPV transformed cells [3] is “sharp anticlonogenic and antiproliferative effect”; in the experiment with Siha cells [5], “almost complete suppression of proliferation”; in the experiment with Siha cells [5] (listed as luteolin), “sharp antiproliferative effect”. The IC50 in the experiment with HPV transformed cells [2] was determined as 6.25 µM; with HeLa cells (Homo sapiens, HeLa, serial twofold dilutions (Luteolin from 50 μM, Galangin from 100 μM), live cell image analysis, FIG. 3, read-out: CID50 (50% clonal inhibitory dose)), 6.25 µM. For the same compound, in the experiment with HPV transformed cells [2], the “IRR (inhibitory relative rate)” value amounted to 8. Also, in the experiment with HPV transformed cells [2] (summary statement), the “anticlonogenic / anti-clonal effect” value was “sharp anticlonogenic and antiproliferative effect”. Moreover, the “end-point anti-clonal effect versus control untreated cells” value in the experiment on Siha cells [4] (6.25 μM, alone) was “no difference to control untreated cells”. In the experiment on Siha cells [4], the inhibition at 25 µM is about 50%. In addition, the Anti-clonal effect entry in the experiment with HeLa cells (50 μM, HeLa) is on record as “almost complete suppression of clonal activity”. Also, the inhibition at up to 50 µM in the experiment with HeLa cells (Homo sapiens, wells D:1-6, serial twofold dilutions of 50 μM, HeLa, FIG. 3, read-out: anti-clonal titration, inhibition in wells D:1-6) was about 50%. In addition, the “anti-clonal effect at concentrations above CID50” value in the experiment on HeLa cells (FIG. 3) was “completely suppressive”. In addition, the “anti-clonal titration, inhibition in wells C:1-6” value with HeLa cells (wells C:1-6, serial twofold dilutions of 50 μM, HeLa, FIG. 3) is “almost complete inhibition”.
